Legend:
Assay type in all cases: binding
[1] = target: T1, recombinant N-terminal MLH1 (residues 15-340) (Homo sapiens, UniProt P40692); test: Fluorescence Polarisation Assay for MLH1; conditions: 100 nM N-terminal MLH1, 5 nM probe compound
T1 construct: recombinant N-terminal MLH1 (residues 15-340)
T1 sequence (P40692 15-340): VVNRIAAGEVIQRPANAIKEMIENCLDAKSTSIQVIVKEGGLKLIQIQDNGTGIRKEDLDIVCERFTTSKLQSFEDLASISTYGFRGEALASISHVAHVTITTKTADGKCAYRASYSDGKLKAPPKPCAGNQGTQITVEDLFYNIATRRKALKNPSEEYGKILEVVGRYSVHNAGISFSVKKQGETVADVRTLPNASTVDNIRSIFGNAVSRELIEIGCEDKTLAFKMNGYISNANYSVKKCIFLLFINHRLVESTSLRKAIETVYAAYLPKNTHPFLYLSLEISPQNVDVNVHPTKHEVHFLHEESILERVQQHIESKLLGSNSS
Outline: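 Fluorescence polarisation displacement: 100 nM MLH1 (15-340) preincubated 30 min at room temperature with compound, then 5 nM rhodamine-labelled probe added and read immediately. Buffer 25 mM HEPES pH 7.5, 250 mM NaCl, 10 mM MgCl2, 0.01% Triton X-100, 5 mM DTT; normalised to no-inhibitor and no-enzyme controls.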

[2] = target: T2, recombinant N-terminal PMS2 (residues 1-365) (Homo sapiens, UniProt P54278); test: Fluorescence Polarisation Assay for PMS2; conditions: 10 nM N-terminal PMS2, 5 nM probe compound
T2 construct: recombinant N-terminal PMS2 (residues 1-365)
T2 sequence (P54278 1-365): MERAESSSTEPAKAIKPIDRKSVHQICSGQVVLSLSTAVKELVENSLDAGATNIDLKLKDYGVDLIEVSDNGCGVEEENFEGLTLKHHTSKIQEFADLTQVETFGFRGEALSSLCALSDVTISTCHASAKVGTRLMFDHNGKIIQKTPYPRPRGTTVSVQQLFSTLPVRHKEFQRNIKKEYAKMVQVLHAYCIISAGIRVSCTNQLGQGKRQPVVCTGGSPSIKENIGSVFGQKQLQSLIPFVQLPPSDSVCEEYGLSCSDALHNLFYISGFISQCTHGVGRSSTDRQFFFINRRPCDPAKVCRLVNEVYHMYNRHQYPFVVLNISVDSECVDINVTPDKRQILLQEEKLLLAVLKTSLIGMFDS
Experimental: Fluorescence Polarisation Assay for PMS2
Test compounds, as 10 mM DMSO stocks, were dispensed into a Black Fluotrac 200 384 well medium binding plate (Greiner Bio-One, item number 781076) using a Labcyte Echo acoustic liquid handler. For single point screening, test compounds were added to wells in columns 1-22 whilst DMSO was added to wells in columns 23 and 24 to normalise the plate. For potency determination, serial dilutions of test compounds were added to wells in columns 3-22 and DMSO volume was normalised across the plate. […] 20 μL assay buffer was added to all wells in columns 1 and 24 (column 24 only for single point screening) using a MultiDrop Combi (ThermoFisher). Plates were centrifuged for 1 minute at 250 xg and were incubated at room temperature for 30 minutes prior to the addition of 20 μL of 2×(20 nM) of 5-((5-(4-((2-(2,4-dihydroxy-5-isopropylbenzoyl) isoindolin-5-yl) methyl)piperazin-1-yl) pentyl)carbamoyl)-2-(6-(dimethylamino)-3-(dimethyliminio)-3H-xanthen-9-yl)benzoate (referred to hereinafter as “probe compound”) in assay buffer (prepared from a 100 μM DMSO stock) with a MultiDrop Combi (ThermoFisher). The final concentration of N-terminal PMS2 was 10 nM and the final concentration of probe compound was 5 nM. Compound plates were centrifuged for 1 minute at 250 xg for 1 minute and were incubated at room temperature for 1 hour before being read on a PheraStar FSX (fitted with 384-well aperture spoon and 540 590 590 FP optic module). The gain and focus were adjusted before each plate was read so that the polarisation of a no enzyme control (column 24) was equal to 35 mP. Data were normalised against the no inhibitor controls (column 23) and no enzyme controls (column 24).

[3] = target: T3, recombinant HSP90α (full length with an N-terminal His6-tag) (Homo sapiens, UniProt P07900); test: Fluorescence Polarisation Assay for HSP90; conditions: 30 nM HSP90α, 5 nM FITC-Geldanymycin
T3 construct: recombinant HSP90α (full length with an N-terminal His6-tag, BPS Bioscience); His6 (N); purchased BPS Bioscience
Experimental: Fluorescence Polarisation Assay for HSP90
Test compounds, solubilised to a concentration of 10 mM in DMSO, were dispensed into a Black Fluotrac 200 384 well medium binding plates (Greiner Bio-One, item number 781076) using a Labcyte Echo acoustic liquid handler. For single point screening, test compounds were added to wells in columns 1-22 whilst for potency determination, serial dilutions of test compounds were added to wells in columns 3-22; in all cases, DMSO volume was normalised across the entire plate. All subsequent liquid handling steps were conducted using a Multidrop Combi (Thermo Scientific) or Matrix electronic pipettors (Thermo Scientific).
20 μL assay buffer was added to all wells in columns 1 and 24 (column 24 only for single point screening). Plates were centrifuged for 1 minute at 250 xg and were incubated at room temperature for 30 minutes prior to the addition of 20 μL of 2×(10 nM) of FITC-Geldanymycin in assay buffer (Abcam ab141589, prepared from a 100 μM DMSO stock). […]
Compound plates were centrifuged for 1 minute at 250 xg and were incubated at room temperature for 3 hours before being read on a PheraStar FSX (fitted with 384-well aperture spoon and 485 520 520 FP optic module). The gain and focus were adjusted before each plate was read so that the polarisation of a no enzyme control (column 24) was equal to 35 mP. […]

`CN(C)CCOc1ccc2c(c1)CCN(C(=O)c1c(O)cc(C(F)F)cc1OCc1ccccc1)C2` [Example 4.41, (2-(Benzyloxy)-4-s(difluoromethyl)-6-hydroxyphenyl)(6-(2-(dimethylamino)ethoxy)-3,4-dihydroisoquinolin-2(1H)-yl)methanone] gave an IC50 [1] of 100 to 1000 nM and an IC50 [2] of 100 to 1000 nM.

With `CN1CCC(Oc2ccc3c(c2)CN(C(=O)c2c(O)cc(C(F)F)cc2OCc2ccccc2)C3)CC1` [Example 4.32, (2-(Benzyloxy)-4-(difluoromethyl)-6-hydroxyphenyl)(5-((1-methylpiperidin-4-yl)oxy)isoindolin-2-yl)methanone] the IC50 [3] was 1000 to 10000 nM, the IC50 [1] was < 100 nM and the IC50 [2] was 1000 to 10000 nM.

`CN1CC[C@H](Oc2ccc3c(c2)CN(C(=O)c2c(O)cc(C(F)F)cc2OCc2ccccc2)C3)C1` [Example 4.56, (S)-(2-(Benzyloxy)-4-(difluoromethyl)-6-hydroxyphenyl)(5-((1-methylpyrrolidin-3-yl)oxy)isoindolin-2-yl)methanone] was tested, and the IC50 [1] was < 100 nM and the IC50 [2] was 1000 to 10000 nM.

For `O=C(c1c(O)cc(C(F)F)cc1OCc1ccccc1)N1Cc2ccc(OC3CCNCC3)cc2C1` [Example 26, (2-(Benzyloxy)-4-(difluoromethyl)-6-hydroxyphenyl)(5-(piperidin-4-yloxy)isoindolin-2-yl)methanone], the IC50 [1] was < 100 nM and the IC50 [2] was 1000 to 10000 nM.

With `CN1CCC(Oc2ccc3c(c2)CN(C(=O)c2c(O)cc(C(F)F)cc2OCC2CC2)C3)CC1` [Example 4.59, (2-(Cyclopropylmethoxy)-4-(difluoromethyl)-6-hydroxyphenyl)(5-((1-methylpiperidin-4-yl)oxy)isoindolin-2-yl)methanone] the IC50 [3] was 1000 to 10000 nM and the IC50 [1] was 100 to 1000 nM.

Work on `CN1CCC(Oc2ccc3c(c2)CN(C(=O)c2c(O)cc(F)cc2OCc2ccccc2)C3)CC1` [Example 10.25, (2-(Benzyloxy)-4-fluoro-6-hydroxyphenyl) (5-((1-methylpiperidin-4-yl)oxy)isoindolin-2-yl) methadone] yielded an IC50 [1] of 100 to 1000 nM and an IC50 [2] of 1000 to 10000 nM.
